The first experiment addresses FASN enzyme (Homo sapiens, UniProt P49327). Description: Enzymatic Assay for FASN Inhibitors. Type of experiment: biochemical.
Settings: not given
A digest of the protocol:
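40 nM FASN preincubated with compound 60 min at 25° C in HEPES pH 7.3 buffer with 0.04% Triton X-100. Then 20 μM acetyl-CoA, 60 μM malonyl-CoA and 100 μM NADPH added for 90 min, quenched with CPM thiol probe; fluorescence 360/530 nm, IC50 by four-parameter fit.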
FASN enzyme, sequence (P49327 whole entry): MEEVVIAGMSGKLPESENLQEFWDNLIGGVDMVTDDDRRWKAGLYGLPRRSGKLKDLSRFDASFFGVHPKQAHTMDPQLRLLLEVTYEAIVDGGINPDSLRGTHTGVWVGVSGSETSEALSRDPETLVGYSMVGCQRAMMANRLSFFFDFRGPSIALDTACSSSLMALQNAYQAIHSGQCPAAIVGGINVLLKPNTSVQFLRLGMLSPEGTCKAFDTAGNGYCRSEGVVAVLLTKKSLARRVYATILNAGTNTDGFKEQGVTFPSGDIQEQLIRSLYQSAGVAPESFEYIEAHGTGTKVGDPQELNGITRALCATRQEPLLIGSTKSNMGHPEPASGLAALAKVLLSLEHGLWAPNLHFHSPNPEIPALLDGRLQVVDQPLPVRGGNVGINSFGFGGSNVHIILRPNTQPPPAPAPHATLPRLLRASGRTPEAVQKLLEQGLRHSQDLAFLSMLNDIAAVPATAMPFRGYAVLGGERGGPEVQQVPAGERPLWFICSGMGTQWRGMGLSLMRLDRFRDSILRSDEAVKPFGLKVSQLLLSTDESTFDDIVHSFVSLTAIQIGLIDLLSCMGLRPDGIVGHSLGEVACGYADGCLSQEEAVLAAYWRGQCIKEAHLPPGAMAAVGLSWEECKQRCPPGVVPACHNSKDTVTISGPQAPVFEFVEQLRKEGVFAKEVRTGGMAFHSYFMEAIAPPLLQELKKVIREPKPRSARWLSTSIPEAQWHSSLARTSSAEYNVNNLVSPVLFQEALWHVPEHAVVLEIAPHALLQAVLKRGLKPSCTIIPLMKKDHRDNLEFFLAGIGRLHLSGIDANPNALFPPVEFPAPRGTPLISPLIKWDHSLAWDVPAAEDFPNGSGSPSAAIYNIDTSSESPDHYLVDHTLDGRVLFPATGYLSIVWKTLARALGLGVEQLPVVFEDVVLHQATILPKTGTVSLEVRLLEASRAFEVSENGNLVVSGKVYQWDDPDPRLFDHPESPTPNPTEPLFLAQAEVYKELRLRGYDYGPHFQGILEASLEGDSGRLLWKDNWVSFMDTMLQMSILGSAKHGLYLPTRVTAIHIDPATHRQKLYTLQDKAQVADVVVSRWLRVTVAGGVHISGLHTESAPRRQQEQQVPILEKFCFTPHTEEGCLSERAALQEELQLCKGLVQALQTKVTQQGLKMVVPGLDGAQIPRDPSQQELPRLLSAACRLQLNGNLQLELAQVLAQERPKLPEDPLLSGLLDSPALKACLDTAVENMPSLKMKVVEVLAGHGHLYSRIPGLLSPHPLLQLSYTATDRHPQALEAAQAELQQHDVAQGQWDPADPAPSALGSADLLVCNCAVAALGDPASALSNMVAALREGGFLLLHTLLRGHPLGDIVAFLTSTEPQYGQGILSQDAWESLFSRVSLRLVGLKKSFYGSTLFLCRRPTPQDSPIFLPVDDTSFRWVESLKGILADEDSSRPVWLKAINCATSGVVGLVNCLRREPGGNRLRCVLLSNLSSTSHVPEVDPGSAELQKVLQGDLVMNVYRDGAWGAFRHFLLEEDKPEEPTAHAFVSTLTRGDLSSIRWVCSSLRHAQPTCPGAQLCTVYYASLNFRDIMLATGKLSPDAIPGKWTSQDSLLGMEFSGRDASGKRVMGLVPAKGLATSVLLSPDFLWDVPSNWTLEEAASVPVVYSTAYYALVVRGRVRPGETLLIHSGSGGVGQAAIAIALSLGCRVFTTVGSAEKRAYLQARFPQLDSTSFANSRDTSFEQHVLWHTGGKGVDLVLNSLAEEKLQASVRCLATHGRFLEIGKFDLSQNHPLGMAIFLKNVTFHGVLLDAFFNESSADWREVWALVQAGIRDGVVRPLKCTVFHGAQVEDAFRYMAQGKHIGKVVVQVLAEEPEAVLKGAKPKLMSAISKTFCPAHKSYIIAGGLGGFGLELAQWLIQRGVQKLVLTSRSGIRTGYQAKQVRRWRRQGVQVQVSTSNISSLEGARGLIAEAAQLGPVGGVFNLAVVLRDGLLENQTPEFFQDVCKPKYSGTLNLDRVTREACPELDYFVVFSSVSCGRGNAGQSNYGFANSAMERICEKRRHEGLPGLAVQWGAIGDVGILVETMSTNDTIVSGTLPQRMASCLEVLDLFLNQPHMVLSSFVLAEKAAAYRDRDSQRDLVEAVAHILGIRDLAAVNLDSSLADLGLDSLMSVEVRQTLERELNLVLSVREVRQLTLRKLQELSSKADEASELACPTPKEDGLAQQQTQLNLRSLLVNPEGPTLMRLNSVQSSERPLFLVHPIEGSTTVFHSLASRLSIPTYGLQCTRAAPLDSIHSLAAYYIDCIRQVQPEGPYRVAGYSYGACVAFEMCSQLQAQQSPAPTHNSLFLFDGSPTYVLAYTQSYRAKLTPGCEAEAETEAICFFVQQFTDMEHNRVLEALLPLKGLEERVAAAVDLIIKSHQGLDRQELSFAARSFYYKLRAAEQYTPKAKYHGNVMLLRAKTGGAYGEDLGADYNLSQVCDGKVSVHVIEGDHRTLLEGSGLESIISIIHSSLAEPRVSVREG
The molecule `Cn1ccc2cc(-c3cnc(C(=O)N4CCN(C(=O)C5(O)CC5)CC4)cn3)ccc21` [1-[(4-{[5-(1-methyl-1H-indol-5-yl)pyrazin-2-yl]carbonyl}piperazin-1-yl)carbonyl]cyclopropan-1-ol] returned an IC50 below 0.5 µM. For the molecule `O=C(c1ccc(-c2cccc(NS(=O)(=O)CC3CCC3)c2)cc1)N1CCN(C(=O)C2(O)CC2)CC1` [1-cyclobutyl-N-(3-{4-[4-(1-hydroxycyclopropanecarbonyl)piperazine-1-carbonyl]phenyl}phenyl)methanesulfonamide], the IC50 is below 0.5 µM. The molecule `O=C(c1ccc(-c2cccc(NS(=O)(=O)CC3CC3)c2)cc1)N1CCN(C(=O)C2(O)CC2)CC1` [1-cyclopropyl-N-(3-{4-[4-(1-hydroxycyclopropanecarbonyl)piperazine-1-carbonyl]phenyl}phenyl)methanesulfonamide] displayed a concentration for half-maximal inhibition (IC50) below 0.5 µM. Still for that read-out and setting: to `Cn1cnc2cc(-c3ccc(C(=O)N4CCN(C(=O)C5CCO5)CC4)cc3)ccc21` (stereo not drawn) [1-methyl-5-{4-[4-(oxetane-2-carbonyl)piperazine-1-carbonyl]phenyl}-1H-1,3-benzodiazole] belongs below 0.5 µM; to `Cn1cnc2cc(-c3cc(F)c(C(=O)N4CCN(C(=O)C5(O)CC5)CC4)c(F)c3)ccc21` [1-{4-[2,6-difluoro-4-(1-methyl-1H-1,3-benzodiazol-5-yl)benzoyl]piperazine-1-carbonyl}cyclopropan-1-ol], below 0.5 µM; to `Cn1ncc2ccc(-c3cc(F)c(C(=O)N4CCN(C(=O)C5(O)CC5)CC4)c(F)c3)cc21` [1-{4-[2,6-difluoro-4-(1-methyl-1H-indazol-6-yl)benzoyl]piperazine-1-carbonyl}cyclopropan-1-ol], below 0.5 µM.

`Cn1cc2ccc(-c3cc(F)c(C(=O)N4CCN(C(=O)C5(N)CC5)CC4)c(F)c3)cc2n1` [1-{4-[2,6-difluoro-4-(2-methyl-2H-indazol-6-yl)benzoyl]piperazine-1-carbonyl}cyclopropan-1-amine]: the 50% inhibitory concentration (IC50) was below 0.5 µM. Still for that read-out and setting: to `Cn1cc2ccc(-c3cc(F)c(C(=O)N4CCN(C(=O)C5(O)CC5)CC4)c(F)c3)cc2n1` [1-{4-[2,6-difluoro-4-(2-methyl-2H-indazol-6-yl)benzoyl]piperazine-1-carbonyl}cyclopropan-1-ol] belongs below 0.5 µM. In turn, `Cn1ncc2ccc(-c3ccc(C(=O)N4CCN(C(=O)C5(O)CC5)CC4)c(Cl)c3)cc21` [1-{4-[2-chloro-4-(1-methyl-1H-indazol-6-yl)benzoyl]piperazine-1-carbonyl}cyclopropan-1-ol] came in with an IC50 below 0.5 µM. Same read-out and setting: then `Cn1cc2ccc(-c3ccc(C(=O)N4CCN(C(=O)C5(O)CC5)CC4)c(Cl)c3)cc2n1` [1-{4-[2-chloro-4-(2-methyl-2H-indazol-6-yl)benzoyl]piperazine-1-carbonyl}cyclopropan-1-ol], with below 0.5 µM; and `O=C(c1ccc(-c2cc(Cl)ccc2F)cc1Cl)N1CCN(C(=O)C2(O)CC2)CC1` [1-{4-[2-chloro-4-(5-chloro-2-fluorophenyl)benzoyl]piperazine-1-carbonyl}cyclopropan-1-ol], with below 0.5 µM; and `O=C(c1ccc(-c2nc3ccc(Cl)cc3o2)cc1Cl)N1CCN(C(=O)C2(O)CC2)CC1` [1-{4-[2-chloro-4-(6-chloro-1,3-benzoxazol-2-yl)benzoyl]piperazine-1-carbonyl}cyclopropan-1-ol], with below 0.5 µM. On the same count and under the same terms, then `Cn1cnc2cc(-c3ccc(C(=O)N4CCN(C(=O)C5(N)CCC5)CC4)c(F)c3)ccc21` [1-{4-[2-fluoro-4-(1-methyl-1H-1,3-benzodiazol-5-yl)benzoyl]piperazine-1-carbonyl}cyclobutan-1-amine], with below 0.5 µM. Same read-out and setting: to `Cn1cnc2cc(-c3ccc(C(=O)N4CCN(C(=O)C5(N)CC5)CC4)c(F)c3)ccc21` [1-{4-[2-fluoro-4-(1-methyl-1H-1,3-benzodiazol-5-yl)benzoyl]piperazine-1-carbonyl}cyclopropan-1-amine] belongs below 0.5 µM. `Cn1cnc2cc(-c3ccc(C(=O)N4CCN(C(=O)C5(O)CC5)CC4)c(F)c3)ccc21` [1-{4-[2-fluoro-4-(1-methyl-1H-1,3-benzodiazol-5-yl)benzoyl]piperazine-1-carbonyl}cyclopropan-1-ol] displayed a half-inhibitory concentration (IC50) below 0.5 µM.

Still in this experiment, the particulars now being: FASN enzymatic assay; Table 2-2.
Turning to `Cc1nc(-c2ccc3c(ccn3C)c2)sc1C(=O)N1CCN(C(=O)C2(O)CC2)CC1` [1-[(4-{[4-methyl-2-(1-methyl-1H-indol-5-yl)-1,3-thiazol-5-yl]carbonyl}piperazin-1-yl)carbonyl]cyclopropan-1-ol], the IC50 lay within 0.5 to 5 µM. Regarding `Cc1nc(-c2cnc3ccccc3c2)sc1C(=O)N1CCN(C(=O)C2(O)CC2)CC1` [1-[(4-{[4-methyl-2-(quinolin-3-yl)-1,3-thiazol-5-yl]carbonyl}piperazin-1-yl)carbonyl]cyclopropan-1-ol], the half-maximal inhibitory concentration (IC50) was 0.5 to 5 µM.

In turn, `COc1ccc2cc(-c3ccc(C(=O)N4CCN(C(=O)C5(O)CC5)CC4)nc3)ccc2n1` [1-[(4-{[5-(2-methoxyquinolin-6-yl)pyridin-2-yl]carbonyl}piperazin-1-yl)carbonyl]cyclopropan-1-ol] showed an IC50 of 0.5 to 5 µM. With `O=C(c1ccc(-c2ccc(Cl)cc2F)cn1)N1CCN(C(=O)C2(O)CC2)CC1` [1-[(4-{[5-(4-chloro-2-fluorophenyl)pyridin-2-yl]carbonyl}piperazin-1-yl)carbonyl]cyclopropan-1-ol], the half-inhibitory concentration (IC50) lay in the range of 0.5 to 5 µM. Regarding `O=C(c1ncc(-c2ccc(Cl)cc2F)cn1)N1CCN(C(=O)C2(O)CC2)CC1` [1-[(4-{[5-(4-chloro-2-fluorophenyl)pyrimidin-2-yl]carbonyl}piperazin-1-yl)carbonyl]cyclopropan-1-ol], the 50% inhibitory concentration (IC50) lay in the range of 0.5 to 5 µM. The same measure, in the same setting: to `O=C(c1cnc(-c2cnc3ccccc3c2)cn1)N1CCN(C(=O)C2(O)CC2)CC1` [1-[(4-{[5-(quinolin-3-yl)pyrazin-2-yl]carbonyl}piperazin-1-yl)carbonyl]cyclopropan-1-ol] belongs 0.5 to 5 µM.

Turning to `O=C(c1cnc(-c2ccc3ncccc3c2)cn1)N1CCN(C(=O)C2(O)CC2)CC1` [1-[(4-{[5-(quinolin-6-yl)pyrazin-2-yl]carbonyl}piperazin-1-yl)carbonyl]cyclopropan-1-ol], the IC50 was in the range of 0.5 to 5 µM. On the same count and under the same terms, then `O=C(c1ncc(-c2ccc3ncccc3c2)cn1)N1CCN(C(=O)C2(O)CC2)CC1` [1-[(4-{[5-(quinolin-6-yl)pyrimidin-2-yl]carbonyl}piperazin-1-yl)carbonyl]cyclopropan-1-ol], with 0.5 to 5 µM. On the same count and under the same terms, then `COc1ccc2cc(-c3ccc(C(=O)N4CCN(C(=O)C5(O)CC5)CC4)cn3)ccc2n1` [1-[(4-{[6-(2-methoxyquinolin-6-yl)pyridin-3-yl]carbonyl}piperazin-1-yl)carbonyl]cyclopropan-1-ol], with 0.5 to 5 µM. `O=C(c1ccc(-c2ccc3ncccc3c2)nc1)N1CCN(C(=O)C2(O)CC2)CC1` [1-[(4-{[6-(quinolin-6-yl)pyridin-3-yl]carbonyl}piperazin-1-yl)carbonyl]cyclopropan-1-ol] showed a concentration for half-maximal inhibition (IC50) of 0.5 to 5 µM.

The experiment is the same for the next values; noted with them: FASN enzymatic assay; Table 2-3.
`O=C(c1ccc(-c2ccc(Cl)cc2F)nc1)N1CCN(C(=O)C2(O)CC2)CC1` [1-[(4-{[6-(4-chloro-2-fluorophenyl)pyridin-3-yl]carbonyl}piperazin-1-yl)carbonyl]cyclopropan-1-ol]: the half-maximal inhibitory concentration (IC50) is at least 5 µM. The molecule `O=C(c1cn2cc(-c3ccc(F)cc3)ccc2n1)N1CCN(C(=O)C2(O)CC2)CC1` [1-[(4-{[6-(4-fluorophenyl)imidazo[1,2-a]pyridin-2-yl]carbonyl}piperazin-1-yl)carbonyl]cyclopropan-1-ol] displayed an IC50 of at least 5 µM.
